Laboratory results reported in patent publication US12447216B2, “Biogenic hemin-based MRI contrast agents, and compositions and methods thereof” (University of Massachusetts, priority 2017, dated 2025).

How the values were obtained:
[1] = T1 relaxivity (r1) measurement and T1-weighted in vitro MR imaging; assay type: physicochemical
Protocol: Hematin was studied for its properties in MR imaging.
(§1) FIG. 1 is a graph showing r1 values and 1/T1 values according to Fe concentrations of metalloporphyrin-based MRI-CAs after dispersion in water. […] To further evaluate its MRI performance in vivo, hematin at a dose of 2 mg/kg/day, which is within the recommended range for clinical use, was administered into the tail veins of nude mice.
The composition of the prepared He-PEG was confirmed by NMR spectroscopy. […] The ^1H NMR spectrum of the He-PEG nanoparticles confirmed the successful conjugation of He with PEG2000. The magnetic property of the produced He-PEG particles was determined by measuring the longitudinal relaxivity values, which referred to the slope of the 1/T1 (R1) plot versus Fe ion concentration.
FIGS. 5 and 6 show r1 values and 1/T1 values according to Fe concentrations of He—OH after dispersion in water.

[2] = Body weight monitoring after tail vein injection; assay type: in vivo; settings: mice, versus PBS control, 2 weeks
Excerpt: (§2) The biocompatibility of hematin for injection was comprehensively investigated, for example, via blood routine examination, histological analysis, and body weight monitoring.

[3] = Histological analysis (hematoxylin and eosin) of major organs; assay type: in vivo; settings: mice; 14 days after administration
Protocol: as §2
Subsequently, hematoxylin and eosin examinations were performed on major organs (e.g., heart, liver, spleen, lung, and kidney) collected from healthy mice and those treated with HeOH-PEG. […] No significant differences were found between the cellular morphology of the studied organs in the HeOH-PEG treated group and the control group (FIG. 10).

[4] = set-up: species or system mice; settings: mouse, in vivo, iv
Excerpt: as §2
Another group of mice injected with PBS were used as control.
Meanwhile, blood samples were collected at different intervals after treatment with HeOH-PEG. […] Another group of mice injected of PBS were used as control.

[5] = In vivo MR imaging / MR angiography after tail vein injection; settings: nude mice, 2 mg/kg/day, FIG. 2
Protocol: as §1
To study the potential application of HeOH-PEG for in vivo MRI, a series of MR imaging were performed at different time points after HeOH-PEG was injected via tail vein into health node mice (500 μL, 0.48 mmol […] per kg mice). FIG. 11 is the 3D image of MR angiography acquired from the mouse after intravenous injection with HeOH-PEG.
The MR signal enhancement with excellent contrast in the vasculature lasted until 60 min post injection.

[6] = only in a rare case; cited from earlier work

T1 relaxivity value ([1]; 3.0 T MR scanner, dispersion in water, FIG. 1): 0.424 mM⁻¹ s⁻¹
r1 value (longitudinal relaxivity, slope of 1/T1 versus Fe ion concentration) ([1]; dispersion in water): 0.424 s^−1 mM^−1 Fe
blood routine examination parameters versus normal range [4]: within the normal range
SMILES: C=CC1=C(C)c2cc3[n-]c(cc4[n-]c(cc5nc(cc1n2)C(C)=C5C=C)c(C)c4CCC(=O)O)c(CCC(=O)O)c3C.O.[Fe+2] [hematin]
T1-weighted in vitro MR imaging signal ([1]; various Fe concentrations): concentration-dependent brightening effect
body weight change [2]: no significant changes compared to the control group
histological changes in heart, liver, spleen, lung and kidney [3]: no obvious histological changes
T1 signal in vivo after intravenous administration [5]: increase in the T1 signal was clearly observed in the heart and large vessel
excessive hematin dose reported to induce reversible renal shutdown [6]: 12.2 mg/kg
